Assay results taken from patent publication US9522124B2, “Methods for treating Alzheimer's disease” (Wisconsin Alumni Research Foundation, priority 2011, dated 2016).

Tests used:
BACE1 = test: Western blot assessment of BACE1 levels in H4 cell lysates; assay type: cell-based, human; details: H4 cells, 10 μM, 48 hours
Description: (§1) Western blotting was performed on a 4-12% Bis-Tris SDS-PAGE system (NuPAGE; Invitrogen, Carlsbad, Calif., USA) as described previously (Costantini et al., 2006; Jonas et al., 2008; Jonas et al., 2010; Ko and Puglielli, 2007; Ko and Puglielli, 2009; Pehar et al., 2010). The following antibodies were used in this study: anti-acetylated lysine (monoclonal; cat. no. ab409; Abcam, Cambridge, Mass., USA); anti-BACE1 (polyclonal; cat. no. ab2077; Abcam); anti-Myc (monoclonal; cat. no. sc-40; santa cruz, Santa Cruz, Calif., USA); anti-ATases/NAT8 (polyclonal; cat. no. AP4957c; Abgent, San Diego, Calif., USA); anti-actin (monoclonal; cat. no. A1978; Sigma, St Louis, Mo., USA); anti-C99 (monoclonal; cat. no. M066-3; MBL, Woburn, Mass., USA); anti-acetylated H3 (polyclonal; cat. no. 06-599, Millipore, Billerica, Mass.); anti-acetylated H4 (polyclonal; cat. no. 06-866, Millipore, Billerica, Mass.); anti-αPCNA (polyclonal; cat. no. AP2835b, Abgent, San Diego, Calif., USA).
Samples were imaged with classical chemiluminescence and with the LiCor Odyssey Infrared Imaging System (LI-COR Biosciences, Lincoln, Nebr., USA). For chemiluminescent detection, HRP-conjugated anti-mouse or anti-rabbit secondary antibodies were used at 1:6000 dilution in 3% BSA/TBST (GE Healthcare). Detection was performed with either Lumiglo (KPL) or ECL Plus (GE Healthcare). For infrared imaging, goat anti-rabbit Alexa Fluor 680-conjugated secondary antibodies were used.
To assess their biological effects, we treated human neuroglioma (H4) cells with 10 μM of both compounds. […] This might reflect different kinetics of inhibition as well as different IC50s (see FIG. 2). Alternatively, it might also be explained by different cell-permeability properties. In fact, the cLog P for compound 9 and 19 is 5.03 and 3.19, respectively. The cLog P (or partition coefficient) is an indication of partition properties of a compound between hydrophobic and hydrophilic compartments. Higher values indicate preferential distribution in hydrophobic environments and, as such, increased permeability across biological membranes.

Aβ = test: ELISA determination of secreted Aβ in conditioned media of H4 cells; assay type: cell-based, human; details: 10 μM, 48 hours
Description: For Aβ determinations in the conditioned media, H4 cells were plated in 6-well Petri dishes. When 80-90% confluent, cells were washed in PBS and incubated in 1 ml of fresh medium for 48 hr. Secreted Aβ was determined by standard sandwich ELISA as described before (Costantini et al., 2007; Costantini et al., 2006; Jonas et al., 2008; Jonas et al., 2010; Ko and Puglielli, 2009; Pehar et al., 2010). For each sample, the levels of Aβ40, Aβ42, and Aβtotal were quantified as triplicate based upon standard curves run (on every ELISA plate) and then expressed as pmol Aβ/mg of protein. Aβ42 was constantly found to be ˜25% of total Aβ values.

ATase1 and ATase2 [1] = test: In vitro acetyltransferase assay, structure-activity of derivatives of compound 9 and 19 (Tables 3, 4); assay type: biochemical, human; details: refers to Table 3 / Table 4
Description: (§2) The acetyl:CoA lysine acetyltransferase activity of ATase1 and ATase2 was assayed as described before (Ko and Puglielli, 2009). Briefly, we adapted a commercially available fluorescent kit (cat. no. 10006515, Cayman Chemicals) as follows: as source of the enzymatic activity, we used affinity purified ATase1-myc and ATase2-myc at the final concentration of 300 ng/μl; as donor of the acetyl group, we used acetyl-CoA at the final concentration of 12.5 μM. […] The acetyltransferase assay was performed as recommended by the manufacturer.
(§3) We previously described a fluorescent assay that is able to assess the acetylCoA:lysine acetyltransferase activity of ATase1 and ATase2 in vitro (Ko and Puglielli, 2009). The assay employs affinity purified ATase1 or ATase2 (as enzymes), acetyl-CoA (as donor of the acetyl group) and a recombinant peptide corresponding to the N-terminal tail of the histone protein H3 (as acceptor of the acetyl group). The H3 peptide was preferred to affinity purified BACE1 because it is acetylated in a conformation independent manner ((Ko and Puglielli, 2009) and data not shown) and, therefore, more suitable for large screening approaches. To identify possible ATase1 and ATase2 inhibitors we used the assay to screen a single library of 14,400 small molecules/compounds. The screen identified 186 small molecules/compounds able to inhibit ATase1, ATase2 or both in vitro. […] Each compound was then screened for cytotoxic properties by using multi-plex cytotoxicity assays on a variety of cell lines, including human neuroblastoma and human neuroglioma. […] The above 30 compounds were individually screened on human neuroglioma (H4) cells for their ability to reduce the levels of BACE1 and the generation of Aβ. Two compounds, 9 and 19, produced significant changes and were object of further study.
Next we decided to analyze structure-activity properties of both compounds. In the case of compound 9, we designed 13 different chemical derivatives and assessed IC50s in vitro.

ATase1 and ATase2 [2] = test: Western blot assessment of endogenous ATase1/ATase2 levels in H4 cells; assay type: cell-based, human; details: 10 μM, 48 hours
Description: FIG. 4. Compound 9 causes degradation of the ATases. (A) H4 cells were treated with the indicated compounds (10 μM) for 48 hours prior to Western blot assessment of BACE1 and ATase1/ATase2 levels in total cell lysates. (B, D and E) Quantification of changes are expressed as percent of control (no treatment) and are the average (n=3)±S.D.*, P<0.05; **, P<0.005; ^#, P<0.0005. (C) ELISA determination of secreted Aβ in the conditioned media of the experiment described in (A). Results are expressed as percent of control (no treatment) and are the average (n=3)±S.D.*, P<0.05; **, P<0.005. (F) CHO cells over-expressing either ATase1 or ATase2 were treated with compound 9 (10 μM) for 48 hours prior to Western blot assessment of ATase1 and ATase2 levels in total cell lysates.
FIG. 13. Compound 9 decreases the levels of both ATase1 and ATase2. (A) H4 cells were treated with the increasing concentrations of compound 9 for 48 hours prior to Western blot assessment of BACE1 and ATase1/ATase2 levels in total cell lysates. (B-D) Quantification of changes are expressed as percent of control (no treatment) and are the average (n=3)±S.D.*, P<0.05; **, P<0.005; ^#, P<0.0005.
as §1, with “AP2835b, Abgent, San Diego, Calif., USA).” left out

ATase2 = biological target: T1, ATase2 (Homo sapiens, UniProt Q9UHE5); test: AcetylCoA:lysine acetyltransferase assay (fluorescent, affinity purified ATase2-myc); assay type: biochemical
T1 construct: myc (C); made in house
T1 sequence (Q9UHE5 1-227): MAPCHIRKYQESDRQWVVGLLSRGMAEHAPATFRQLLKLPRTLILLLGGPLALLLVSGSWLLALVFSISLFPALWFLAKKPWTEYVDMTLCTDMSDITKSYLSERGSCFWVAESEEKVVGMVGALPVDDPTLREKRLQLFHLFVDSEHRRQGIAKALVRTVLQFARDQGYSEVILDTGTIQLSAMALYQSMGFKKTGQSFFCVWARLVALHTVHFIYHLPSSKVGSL
Description: as §2
(§4) For kinetic analysis of ATase1 and ATase2 inhibition, the assays were performed in the presence of the indicated concentrations of compound 9, 19 and 9.I. The concentration of acetyl-CoA was varied from […]. Values were plotted as a Lineweaver-Burk plot using Graphpad Prism software.
as §3

C99 = test: Western blot assessment of C99 levels in H4 cell lysates; assay type: cell-based, human; details: H4 cells, 48 hours
Description: FIG. 7. Compound 9 and 19 decrease levels and activity of BACE1. H4 cells were treated with either compound 9 or 19 for 48 hours prior to Western blot assessment of BACE1 and C99 levels in cell lysates. C99 is the immediate product of BACE1-mediated cleavage of APP.
as §1

[3] = tested on: cytosolic and nuclear proteins, histone proteins H3 and H4; test: Lysine acetylation profile of cytosolic and nuclear proteins in H4 cells; assay type: cell-based, human; details: 48 hours
Description: FIG. 8. […] (A and B) H4 cells were treated with either compound 9 or 19 for 48 hours prior to Western blot assessment of the acetylation profile of cytosolic (A) and nuclear (B) proteins. (C) The nuclear fraction used in (B) was also used to assess the lysine acetylation profile of the histone proteins H3 and H4.
as §1
Cytosolic and nuclear extracts were prepared as described before (Ko and Puglielli, 2007). For cytosolic extracts, cells were homogenized in homogenization buffer containing 25 mM Tris-HCl, pH 7.4, 0.5 mM EDTA, 0.5 mM EGTA, and a protease inhibitor mixture. The homogenates were centrifuged at 14,000×g for 15 min, and supernatants were collected as cytosolic proteins.
For nuclear extracts cells were scraped into ice-cold phosphate-buffered saline and collected by centrifugation. The cell pellets were suspended in 3 volumes of lysis buffer (20 mM Hepes, pH 7.9, 10 mM KCl, 1 mM EDTA, pH 8.0, 0.2% Nonidet P-40, 10% glycerol, and a protease inhibitor mixture) followed by incubation on ice for 10 min. Cell suspensions were gently pipetted up and down; the lysates were then centrifuged at 14,000×g for 5 min at 4° C. to obtain nuclear pellets. Nuclear pellets were washed twice with cell lysis buffer (lacking Nonidet P-40 and protease inhibitor mixture) and then resuspended in 2 volumes of nuclear extract buffer (20 mM Hepes, pH 7.9, 10 mM KCl, 1 mM EDTA, pH 8.0, 420 mM NaCl, 20% glycerol, and a protease inhibitor mixture). The nuclei were extracted by incubation at 4° C. for 30 min with gentle agitation followed by centrifugation at 14,000×g at 4° C. for 5 min; the resultant supernatant fraction was used as a nuclear extract.

[4] = tested on: histone acetyltransferase p300/CBP; test: In vitro activity of histone acetyltransferase p300/CBP; assay type: biochemical; details: data not shown
ATase1 = biological target: T2, ATase1 (Homo sapiens, UniProt Q9UHF3); test: AcetylCoA:lysine acetyltransferase assay (fluorescent, affinity purified ATase1-myc); assay type: biochemical
T2 construct: myc (C); made in house
T2 sequence (Q9UHF3 1-227): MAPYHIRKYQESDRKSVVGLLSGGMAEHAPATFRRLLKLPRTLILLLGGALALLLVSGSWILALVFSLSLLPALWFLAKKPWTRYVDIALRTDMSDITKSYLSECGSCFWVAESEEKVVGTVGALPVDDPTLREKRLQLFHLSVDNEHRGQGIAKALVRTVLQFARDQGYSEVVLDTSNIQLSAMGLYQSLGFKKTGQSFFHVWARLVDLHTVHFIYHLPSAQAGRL
Description: as §2, §4, §3

[5] = Lineweaver-Burk plot, acetyl-CoA varied

Row | inhibitory activity of derivative relative to parent compound (in words) (ATase1 and ATase2 [1]) | SMILES | levels of BACE1 (BACE1) | levels of Aβ in the conditioned media / generation of Aβ (Aβ) | further results
1 | decreased activity | O=C1C(Cl)=C2Nc3ccccc3OC2(O)c2ccccc21 (stereo not drawn) [Compound 9.E] | only 9.I retained significant ability | only 9.I retained significant ability | –
2 | highest activity | Oc1c(Cl)c2nc3ccccc3nc2c2ccccc12 [Compound 9.C] | only 9.I retained significant ability | only 9.I retained significant ability | –

Further lines, the molecule ahead of its results:

Row | SMILES | inhibitory activity of derivative relative to parent compound (in words) (ATase1 and ATase2 [1]) | levels of BACE1 (BACE1) | levels of Aβ in the conditioned media / generation of Aβ (Aβ) | further results
3 | CCN(CC)c1ccc2nc3c4ccccc4c(=O)cc-3oc2c1 [Compound 9.B] | – | only 9.I retained significant ability | only 9.I retained significant ability | –
4 | N=c1c(Cl)c2oc3cc(N)ccc3nc-2c2ccccc12 [Compound 9.A] | – | only 9.I retained significant ability | only 9.I retained significant ability | –
5 | O=c1ccc2nc3ccc(O)cc3oc-2c1 [Compound 9.I] | retained inhibitory properties | retained significant ability | retained significant ability | endogenous levels of ATase1 and ATase2 (ATase1 and ATase2 [2]): significantly down-regulate
6 | CCOc1ccccc1NC1=C(Cl)C(=O)c2ccccc2C1=O [Compound 19] | – | significant reduction | decreased levels of Aβ | IC50 (ATase2): 18.2 µM; kinetics of inhibition for acetyl-CoA, ATase2 (ATase2; [5]): non-competitive inhibition; cellular levels of C99 (C99): decreased cellular levels of C99; acetylation profile of cytosolic and nuclear proteins [3]: Neither compound 9 nor compound 19 produced significant changes; acetylation profile of the histone protein H3 and H4 ([3]; nuclear fraction): slight reduction; inhibition of in vitro activity of p300/CBP [4]: neither compound inhibited; IC50 (ATase1): ~13.3 µM; kinetics of inhibition for acetyl-CoA, ATase1 (ATase1; [5]): non-competitive inhibition
